Assay results taken from ChEMBL document CHEMBL1201862, “PubChem BioAssay data set” (2004).
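Growth conditions: 96-well plates. Treatment: test compound, 48 hours, 5 concentrations. Analysis: linear interpolation between bracketing concentrations; unreached endpoints set to highest concentration. GI50: concentration for 50% inhibition of growth.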 Active and inactive are the calls of the source. No stated cut-off is given here; in the data, active = GI50 up to about 1.1 µM and inactive = higher.

Key:
Test in all cases: NCI-60 cell line screen, 48 h
[1] = tested on: 786-0
[2] = tested on: COLO 205
[3] = tested on: HCC 2998
[4] = tested on: HCT-15
[5] = tested on: K562
[6] = tested on: LOX IMVI
[7] = tested on: M14
[8] = tested on: NCI-H460
[9] = tested on: NCI-H522
[10] = tested on: NCI/ADR-RES
[11] = tested on: OVCAR-3
[12] = tested on: PC-3
[13] = tested on: SK-MEL-28
[14] = tested on: SK-MEL-5
[15] = tested on: SK-OV-3
[16] = tested on: SR
[17] = tested on: TK-10
[18] = tested on: UACC-257
[19] = tested on: UACC-62
[20] = tested on: RPMI-8226

| Compound | GI50 [1] | GI50 [2] | GI50 [3] | GI50 [4] [µM] | GI50 [5] | GI50 [6] | GI50 [7] | GI50 [8] | GI50 [9] | GI50 [10] | GI50 [11] | GI50 [12] | GI50 [13] | GI50 [14] | GI50 [15] | GI50 [16] | GI50 [17] | GI50 [18] | GI50 [19] | GI50 [20] |
| --- | --- | --- | --- | --- | --- | --- | --- | --- | --- | --- | --- | --- | --- | --- | --- | --- | --- | --- | --- | --- |
| O=C1Nc2ccccc2C1=Nc1ccc(S(=O)(=O)Nc2nccs2)cc1 | > 100 µM (inactive) | > 100 µM (inactive) | > 100 µM (inactive) | > 100 | > 100 µM (inactive) | > 100 µM (inactive) | > 100 µM (inactive) | > 100 µM (inactive) | > 100 µM (inactive) | > 100 µM (inactive) | > 100 µM (inactive) | > 100 µM (inactive) | > 100 µM (inactive) | > 100 µM (inactive) | > 100 µM (inactive) | 51.8 µM (inactive) | > 100 µM (inactive) | > 100 µM (inactive) | > 100 µM (inactive) |  |
| COc1cc2nc(-c3ccc4ccccc4c3)nc(O)c2cc1OC | 22.9 µM (inactive) | > 100 µM (inactive) | > 100 µM (inactive) | > 100 | > 100 µM (inactive) | > 100 µM (inactive) | > 100 µM (inactive) | > 100 µM (inactive) | 56.1 µM (inactive) | 69.5 µM (inactive) | > 100 µM (inactive) | > 100 µM (inactive) |  | > 100 µM (inactive) | > 100 µM (inactive) | > 100 µM (inactive) |  | > 100 µM (inactive) | 99.3 µM (inactive) | > 100 µM (inactive) |
| CC(C)N1CCCOC(c2ccc([N+](=O)[O-])cc2)O1 (stereo not drawn) | > 100 µM (inactive) | > 100 µM (inactive) | > 100 µM (inactive) | > 100 | > 100 µM (inactive) | > 100 µM (inactive) | > 100 µM (inactive) | > 100 µM (inactive) | > 100 µM (inactive) | > 100 µM (inactive) | > 100 µM (inactive) | > 100 µM (inactive) | > 100 µM (inactive) | 58.6 µM (inactive) | > 100 µM (inactive) | > 100 µM (inactive) | > 100 µM (inactive) | > 100 µM (inactive) | > 100 µM (inactive) |  |
| O=C1Nc2c(Cl)cc(Cl)cc2/C1=N/N=C/c1ccccc1O | 19.4 µM (inactive) | 16.4 µM (inactive) | 17.9 µM (inactive) | 17.8 | 21.2 µM (inactive) | 16.3 µM (inactive) | 23.1 µM (inactive) | 14.7 µM (inactive) |  | 19.5 µM (inactive) | 16.3 µM (inactive) | 19.5 µM (inactive) | 20.1 µM (inactive) | 20.4 µM (inactive) | 30.6 µM (inactive) | 16.3 µM (inactive) | 36.8 µM (inactive) | 23.5 µM (inactive) | 17.2 µM (inactive) |  |
| CC(C)Oc1cccc(N2C(Nc3ccccc3)=Nc3ccncc3S2(=O)=O)c1 | 17.7 µM (inactive) | 13.1 µM (inactive) | 1.69 µM (inactive) | 20.2 | 76 µM (inactive) | 17.7 µM (inactive) | 25.3 µM (inactive) | 13.3 µM (inactive) | 30.6 µM (inactive) | 19.3 µM (inactive) | 18.4 µM (inactive) | 6.12 µM (inactive) | 0.32 µM (active) | 4.12 µM (inactive) | 44 µM (inactive) | 10.9 µM (inactive) |  | 17.4 µM (inactive) | 19.9 µM (inactive) |  |
| N=C(N)NS(=O)(=O)c1ccc(NCc2cccc3c(=O)c4ccc(Cl)cc4oc23)cc1 | 9.1 µM (inactive) | > 11.6 µM (inactive) | > 15.3 µM (inactive) | 4.93 | 2.84 µM (inactive) | 4.48 µM (inactive) | 6.7 µM (inactive) | 3.15 µM (inactive) |  | 7.8 µM (inactive) | > 8.47 µM (inactive) | 1.4 µM (inactive) | > 12.2 µM (inactive) | 9.4 µM (inactive) | > 10.3 µM (inactive) | 2.08 µM (inactive) | > 10.4 µM (inactive) | 11.1 µM (inactive) | 6.19 µM (inactive) | 4.61 µM (inactive) |
| CC1=C/C(=N/N2C(=O)/C(=C/c3ccc(Cl)cc3)N=C2c2ccccc2)CC(C)(C)C1 | 57 µM (inactive) | > 100 µM (inactive) | > 100 µM (inactive) | > 100 | 66.4 µM (inactive) | 42.1 µM (inactive) | > 100 µM (inactive) | > 100 µM (inactive) | 30 µM (inactive) | 60.7 µM (inactive) |  | 61.2 µM (inactive) | > 100 µM (inactive) | 35.7 µM (inactive) | > 100 µM (inactive) | 31 µM (inactive) | 89.5 µM (inactive) | 69.2 µM (inactive) | 61.9 µM (inactive) | 20.9 µM (inactive) |
| CC(=O)N1C(=O)/C(=C\C(=O)c2ccc([N+](=O)[O-])cc2)c2ccccc21 | 15.5 µM (inactive) | 18.8 µM (inactive) | 19.3 µM (inactive) | 15 | 9.18 µM (inactive) |  | 31 µM (inactive) | 20.1 µM (inactive) | 15.7 µM (inactive) | 44.4 µM (inactive) | 16.7 µM (inactive) | 21.8 µM (inactive) |  | 35 µM (inactive) | > 100 µM (inactive) | 3.61 µM (inactive) | 13.1 µM (inactive) | 19 µM (inactive) | 18.4 µM (inactive) |  |
| CCCC(=O)NC1=C(NCC)C(=O)c2ccccc2C1=O | > 100 µM (inactive) | 36.6 µM (inactive) | 86.3 µM (inactive) | 39.8 | 50.8 µM (inactive) |  | > 10 µM (inactive) | > 100 µM (inactive) | 25.9 µM (inactive) | > 10 µM (inactive) | 34.2 µM (inactive) | 40.9 µM (inactive) | 95.7 µM (inactive) | 74.1 µM (inactive) | > 100 µM (inactive) | 60.5 µM (inactive) | > 100 µM (inactive) | 39.4 µM (inactive) | > 100 µM (inactive) | > 100 µM (inactive) |
| Cc1cn(CC2=NCC(C)N2)c(=O)[nH]c1=O (stereo not drawn) | > 100 µM (inactive) | > 100 µM (inactive) | > 100 µM (inactive) | > 100 | > 100 µM (inactive) | > 100 µM (inactive) | > 100 µM (inactive) | > 100 µM (inactive) | > 100 µM (inactive) | > 100 µM (inactive) |  | > 100 µM (inactive) | > 100 µM (inactive) | > 100 µM (inactive) | > 100 µM (inactive) | > 100 µM (inactive) | > 100 µM (inactive) | > 100 µM (inactive) | > 100 µM (inactive) | > 100 µM (inactive) |
| Oc1ccc(/C=C/c2cc(O)cc3c2C(c2cc(O)cc(O)c2)C(c2ccc(O)c(O)c2)O3)cc1 (stereo not drawn) | 41.8 µM (inactive) | 19.5 µM (inactive) | 25.4 µM (inactive) | 20 |  | 27 µM (inactive) | 31.9 µM (inactive) |  | 27 µM (inactive) | 31.8 µM (inactive) | 27.8 µM (inactive) | 31.3 µM (inactive) | 25.1 µM (inactive) | 17.2 µM (inactive) | 32.5 µM (inactive) | 17.6 µM (inactive) | 27.1 µM (inactive) | 25.3 µM (inactive) | 18.2 µM (inactive) | 13.5 µM (inactive) |
